Active and inactive are the calls of the source. No cut-off for these calls is given here.
Tests used:
Format in all cases: functional, organism-based
[1] = system: Mus musculus; assay: Antinociceptive activity in Swiss mouse assessed as reduction in pain like behavior of mouse in first phase at 5 mg/kg, ip pretreated for 40 min followed by formalin challenge and measured after 30 min; details: time 70.0 min
[2] = system: Mus musculus; assay: Antinociceptive activity in Swiss mouse assessed as reduction in pain like behavior of mouse in second phase at 5 mg/kg, ip pretreated for 40 min followed by formalin challenge and measured after 30 min; details: time 70.0 min
[3] = system: Mus musculus; assay: Antinociceptive activity against CFA-induced persistent inflammation model of Swiss mouse assessed as prevention in CFA-induced allodynia at 2 mg/kg, ip incubated for 40 mins by von frey test
[4] = system: Mus musculus; assay: Antiinflammatory activity against CFA-induced persistent inflammation model of Swiss mouse assessed as prevention in paw edema formation at 2 mg/kg, ip incubated for 40 mins by plethysmometer analysis
[5] = system: Mus musculus; assay: Antinociceptive activity against thermal stimulated-induced persistent inflammation model of Swiss mouse assessed as increased tail flick latency at 5 mg/kg, ip pretreated with compound for 40 mins followed by thermal induction and measured after 2 hrs by tail flick test; details: time 160.0 min
[6] = system: Mus musculus; assay: (§1) Antinociceptive activity against noxious cold stimulated-induced persistent inflammation model of Swiss mouse assessed as reduction in pain like behavior at 5 mg/kg, ip pretreated with compound for 40 min followed by noxious cold stimulation and measured after 2 hrs by cold plate test; details: time 160.0 min
[7] = system: Mus musculus; assay: Antinociceptive activity against thermal stimulated-induced persistent inflammation model of Swiss mouse assessed as increased tail flick latency at 5 mg/kg, ip pretreated with compound for 40 min followed thermal stimulation and measured after 3 days in the presence of naloxone by tail flick test; details: time 4360.0 min
[8] = system: Mus musculus; assay: as §1, with “stimulated-persistent” for “stimulated-induced persistent”, “3 days in the presence of naloxone” for “2 hrs”; details: time 4360.0 min

Compound | Activity [1] | Activity [2] | Activity [3] | Activity [4] | Activity [5] | Activity [6] | Activity [7] | Activity [8]
COc1ccc2c(c1)c(CC(=O)O)c(C)n2C(=O)c1ccc(Cl)cc1 | inactive | Active | – | – | – | – | – | –
C[C@@H]1C[C@H]2[C@@H]3CCC4=CC(=O)C=C[C@]4(C)[C@@]3(F)[C@@H](O)C[C@]2(C)[C@@]1(O)C(=O)CO | – | – | Active | Active | – | – | – | –
CN1CC[C@]23c4c5ccc(O)c4O[C@H]2[C@@H](O)C=C[C@H]3[C@H]1C5 | Active | Active | – | – | Active | Active | inactive | inactive
